Experimental findings from US11236129B2, “IL-17A binding peptides and medical uses thereof” (Dompe' Farmaceutici S.P.A., priority 2018, dated 2022) are described below.

Data set [1] deals with IL-17RA/IL17RC dimerization induced by IL-17A (Homo sapiens, UniProt Q16552). Briefly: IL-17RA/IL17RC dimerization assay in response to IL-17A (PathHunter Cytokine Receptor Assay). It is filed as cell-based. To be noted: IL-17A at EC80; read-out: IC50 in IL-17RA/IL7RC dimerization assay. The procedure, abridged: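 Receptor dimerization was read as chemiluminescence from complemented β-galactosidase after IL-17A at EC80 concentration for 6–16 h at 37 °C. Peptides were added 60 min before agonist, at 37 °C or room temperature, with 1% vehicle. Percent inhibition used the EC80-stimulated and vehicle wells as references.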
Sequence of IL-17RA/IL17RC dimerization induced by IL-17A (Q16552 24-155): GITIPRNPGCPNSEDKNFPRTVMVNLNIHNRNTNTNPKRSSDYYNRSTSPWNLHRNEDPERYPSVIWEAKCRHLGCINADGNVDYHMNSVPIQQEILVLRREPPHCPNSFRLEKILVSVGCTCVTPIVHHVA

Data set [2] can be described thus: Isoelectric point, log D and log P (SiriusT3). The format is physicochemical. To be noted: for IP (isoelectric point): 25±1° C., 0.15 M KCl; for logP: octanol/ISA water, read-out: logP; for logD: pH 7.4, pH 7.4, octanol/ISA water, read-out: Log D (7.4).
The format of data set [3] is physicochemical. To be noted: pH 7.8. Put shortly:
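Peptides dissolved in phosphate buffer pH 7.8 as 10 mM stocks (more dilute for less soluble ones) and stored at 25 °C. Content measured by reversed-phase UHPLC (C18, 0.5% formic acid water/acetonitrile gradient, DAD 220-400 nm, ESI-MS ion trap) after 1:100 dilution to 100 μM, against 100 μM standards, at T0, 3 days and 1 week.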

Data set [4] in a line: Permeability test across stratified human corneal epithelial cells. It is filed as in vitro ADME. How it is done:
(§1) The objective of this study was to evaluate the apparent permeability coefficient (Papp) value of the peptides across stratified human corneal epithelial cells. All peptides were tested at 50 μM in duplicate.
(§2) In particular, human corneal epithelial cells (hCEPIC) were stratified on Transwell cell culture inserts (Corning, N.Y., USA). The permeation experiments were performed taking samples from receiver chambers at 5, 30, 60 minutes time points and from donor chambers at the same time points. Each aliquot collected was analyzed by HPLC instrument (Knauer) equipped with C18 Vertex Plus Column (Knauer) thermostatically controlled at 40° C. The rate (apparent permeability coefficient, Papp) of the study compounds was calculated and compared to the Papp values of the low and high permeability markers, 6-carboxyfluorescein and Rhodamine B, respectively.
(§3) The apparent permeability coefficient (Papp) was calculated according to Equation: Papp=(I/A*C0)(dM/dt)
(§4) where dM/dt is the flux (nanomoles per second) across the cell layers;
(§5) A (square centimeters) is the exposed surface area of the insert membrane;
(§6) C0 is the initial drug concentration (micromolar) in the donor compartment at t=0 (Xiang et al., Drug Metab Dispos. 2009 May; 37(5):992-8.

In data set [5] the test system is human corneal epithelial cells (hCEPIC). The data set is described as above. It is filed as in vitro ADME. How it is done: as §1, §2, §3, §4, §5, §6
For a further data set, the target named is T1, mouse IL-17A (Mus musculus, UniProt Q62386).
T1 sequence (Q62386 26-158): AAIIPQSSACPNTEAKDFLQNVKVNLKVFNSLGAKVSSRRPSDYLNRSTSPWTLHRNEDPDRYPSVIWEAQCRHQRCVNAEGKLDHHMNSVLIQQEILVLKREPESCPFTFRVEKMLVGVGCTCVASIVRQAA
In words: Peptide-IL-17A affinity test (SPR). The format is binding. How it is done: The peptide of the prior art HAP (SEQ ID NO:1) and peptide of SEQ ID NO:2 were tested for affinity for mIL-17A, as described below. For the immobilization of mouse IL-17A protein, amine coupling chemistry was used. […] Covalent immobilization of mIL17 results in stable attachment of 3000 RU of ligand to the surface. […] The molecules were diluted at different concentrations (from 62.5 to 1000 nM) in HBS-EP buffer and injected on the sensorchip for 4 minutes and allowed to dissociate for 5 minutes. After each run, the sensorchip was regenerated by 2 M NaCl injection. Based on the sensorgrams (FIG. 1, panel A) and using the BIAevaluation software, the Scatchard analysis of the RU values at equilibrium allowed to determine an affinity constant as a function of the analyte concentration in solution (FIG. 6, panel B).

The test system of data set [6] is Immortalized Human Corneal Epithelial cell line (I-HCEC). In words: In vitro evaluation of expression of inflammatory cytokines in I-HCEC (real-time PCR). It is filed as cell-based. To be noted: 0.01-500 μM, 24 hours.
Description: The tests were conducted on Immortalized Human Corneal Epithelial cell line (I-HCEC) (Innoprot, Bizkaia, Spain, Ref. P10871). […] The cell medium was supplemented with 5% Fetal Bovine Serum (FBS). Cells were seeded at 320000 cells/well 6 plate and 15000 cells/well 96 plate. […] The experiments were performed three times, each time in duplicate. The used probes from Thermo Fisher Scientific are: human CXCL8 (Hs00174103_m1), human IL6 (Hs00174131_m1), human TNFα (Hs99999043_m1). As housekeeping gene was used GAPDH (probe Hs02758991_g1). […] Untreated I-HCEC were used as negative control (Vehicle).
Data set [7] relates to human differentiated TH17 cells. Briefly: Cytokine and metalloproteinase secretion by human differentiated and activated TH17 cells. To be noted: 24 h after stimulation, supernatant. The format is cell-based. The source says: To evaluate the effect of the peptides of the invention on the target cells responsible for inflammation in ophtalmic or dermatological pathologies, we tested the ability of the peptide of SEQ ID NO: 18 to inhibit in vitro pro-inflammatory cytokines and metalloproteinases secretion by human Th17 cells.
Human primary CD4 T-cells were differentiated into Th17 cells in vitro by culturing the cells in Th17 differentiation medium for 10 days. In details, purified human peripheral blood CD4 T-cells were cultured in Th-17 differentiation medium (CellXVivo Human Th17, Tocris) per manufacturer's instructions. Briefly: 96-well tissue culture plates were coated with anti-CD3 and CD28 agonistic antibodies. Cells were counted via trypan blue exclusion and suspended at a concentration of 1E5 cells/ml in Th-17 differentiation medium. 0.2 mL of this suspension was plated into individual wells of a 96-well plate. Cells were incubated at 37° C. with 5% CO2 for 10 days, with media replaced as needed. Following 10-day Cell Differentiation, the peptides synthetized in Example 1, such as the peptide of Seq. ID No 18, were diluted to the appropriate concentration in CGM (cell growth medium, XVivo-15, Lonza). Cell plate was centrifuged at 300×g for 5 min, and Th17 differentiation medium was removed.
Following differentiation, the cells were stimulated with both an activation cocktail containing Phorbol 12-myristate 13-acetate and lonomycin in the presence of varying concentrations of test articles.
(§7) At 24 h following stimulation, culture supernatants were analyzed for expression of IL-17, IL-6, IL-23, MMP3 and examined for viability using the fluorescence viability dye, Alamar blue. The CD4 cells secreted high levels of IL-17A in response to stimulation with an activation cocktail, indicating successful differentiation into Th17 cells. Additionally, stimulated cells secreted IL-6, IL23 and MMP3.
Supernatant was removed and replaced with 200 μL of diluted peptide or vehicle (CGM+DMSO diluted as with TI concentration) in appropriate groups. Cells were incubated with peptide test items for 1 hour before stimulation. The following stimulation solutions were generated: 10× Cell Activation Cocktail: Diluted from 500× to 10× working solution in CGM. 22 μL of appropriate stimulants were added to wells 1 hr after TI addition. Finally, 25 μL of Alamar blue reagent (10×) was added to each well 20 hours after stimulant (4 hrs prior to 24 hr serum collection) to determine cell viability. 24 hrs After Stimulant, Alamar blue fluorescence was measured per manufacturer's instructions. […] Expression levels of IL-6, IL-17, and IL-23 as well as MMP3 in 24 hour stimulated culture supernatants was evaluated using a Luminex Multiplex Platform on a MAGPIX instrument.

A further data set has as its system human TH17 cells. In words: Viability of human TH17 cells (Alamar blue). The format is cell-based. On the procedure:
as §7
Supernatant was removed and replaced with 200 μL of diluted peptide or vehicle (CGM+DMSO diluted as with TI concentration) in appropriate groups. Cells were incubated with peptide test items for 1 hour before stimulation. The following stimulation solutions were generated: 10× Cell Activation Cocktail: Diluted from 500× to 10× working solution in CGM. 22 μL of appropriate stimulants were added to wells 1 hr after TI addition. Finally, 25 μL of Alamar blue reagent (10×) was added to each well 20 hours after stimulant (4 hrs prior to 24 hr serum collection) to determine cell viability. 24 hrs After Stimulant, Alamar blue fluorescence was measured per manufacturer's instructions. Remaining Supernatants were collected for subsequent multiplex protein analyses. Expression levels of IL-6, IL-17, and IL-23 as well as MMP3 in 24 hour stimulated culture supernatants was evaluated using a Luminex Multiplex Platform on a MAGPIX instrument.
In general terms: Resazurin is reduced to fluorescent resorufin, in cell work by metabolically active cells.

SMILES strings stand for the structures. Entries after “also recorded” stand apart in the source; their conditions may differ. Residues, ends and D or L forms follow the SMILES beside them.

In general, logP refers to a log measure of how a compound divides between an organic and an aqueous phase. By solubility is commonly meant the concentration that dissolves in the medium under given conditions. The term Papp denotes a coefficient for how fast a substance crosses the barrier. Read a low Papp as poor permeation. With `CC[C@H](C)[C@H](NC(=O)[C@H](Cc1c[nH]c2ccccc12)NC(=O)[C@H](CC(=O)O)NC(=O)[C@H](Cc1c[nH]c2ccccc12)NC(=O)[C@H](CC(C)C)NC(=O)[C@H](CC(=O)O)NC(=O)[C@H](C)NC(=O)[C@@H]1CCCN1C(=O)[C@@H](NC(=O)[C@@H](NC(=O)[C@@H](NC(=O)[C@H](Cc1c[nH]cn1)NC(=O)[C@@H](NC(C)=O)C(C)C)C(C)C)[C@@H](C)O)[C@@H](C)CC)C(=O)N[C@@H](CC(N)=O)C(=O)N[C@@H](CCCCN)C(N)=O` [SEQ ID NO: 2] (Ac-VHVTIPADLWDWINK-NH2), the IC50 in data set [1] was below 200 nM. In data set [2], the “IP (isoelectric point)” value was found to be 5.14, the logP amounted to 0.99 and the logD is -0.56. The compound further displayed a solubility in data set [3] above 10 mM. Further, the apparent permeability coefficient (Papp) in [4] (Permeability (Papp ± SE)) is 28.8 ×10⁻⁶ cm/s. This compound also gave an apparent permeability (Papp) in data set [4] (Permeability (Papp)) of 28.9 ×10⁻⁶ cm/s. Also, in [5], the “Permeability (Papp ± SE)” value worked out at 28.86 and the “permeability compared to high permeability standard Rhodamine B (in words)” value was “good permeability”. At mouse IL-17A (SPR), the “affinity for mouse IL-17A relative to SEQ ID NO: 1” value worked out at 28 fold. For the same compound, the Kd on mouse IL-17A (immobilized mIL-17A, 62.5 to 1000 nM peptide, read-out: Kdeq (SPR)) amounted to 130 nM. Moreover, in data set [6], the “expression of the measured inflammatory cytokines (IL-8, IL-6, TNF-α)” value is “does not change the expression; also recorded: does not show any effect”.

Regarding `CC[C@H](C)[C@H](NC(=O)[C@H](Cc1c[nH]c2ccccc12)NC(=O)[C@H](CCC(=O)O)NC(=O)[C@H](Cc1ccc(O)cc1)NC(=O)[C@H](CC(C)C)NC(=O)[C@H](CC(=O)O)NC(=O)[C@H](C)NC(=O)[C@@H]1CCCN1C(=O)[C@@H](NC(=O)[C@@H](NC(=O)[C@@H](NC(=O)[C@H](CCSC)NC(=O)[C@@H](NC(C)=O)C(C)C)C(C)C)[C@@H](C)O)[C@@H](C)CC)C(=O)N[C@@H](CCC(=O)O)C(=O)N[C@@H](CCC(=O)O)C(N)=O` [SEQ ID NO: 18] (Ac-VMVTIPADLYEWIEE-NH2), the IC50 in data set [1] is below 400 nM. In addition, in [7], the “secretion of IL-6” value was “significantly reduce”, the “secretion of IL-17A” value is “significantly reduce”, the “secretion of IL-23” value is “significantly reduce” and the “secretion of MMP3” value is given as “significantly reduce”. In addition, the cell viability result in the data set with human TH17 cells was “did not impair cell viability”. Moreover, in data set [2], the “IP (isoelectric point)” value stood at 3.55, the lipophilicity (logP) was 1.89 and the logD was -3.79. For the same compound, the solubility in data set [3] was at least 0.05 mM.
